Patent US7259188B2, “Methods and pharmaceutical compositions for treatment of anti-estrogen resistant breast cancer using RXR modulators” (priority 1998, dated 2007)
Like-named read-outs stand apart in the source and are kept apart here.

Tests used:
RXRβ = target: T1, RXRβ (UniProt P28704); format: cell-based
T1 sequence (P28704 1-520): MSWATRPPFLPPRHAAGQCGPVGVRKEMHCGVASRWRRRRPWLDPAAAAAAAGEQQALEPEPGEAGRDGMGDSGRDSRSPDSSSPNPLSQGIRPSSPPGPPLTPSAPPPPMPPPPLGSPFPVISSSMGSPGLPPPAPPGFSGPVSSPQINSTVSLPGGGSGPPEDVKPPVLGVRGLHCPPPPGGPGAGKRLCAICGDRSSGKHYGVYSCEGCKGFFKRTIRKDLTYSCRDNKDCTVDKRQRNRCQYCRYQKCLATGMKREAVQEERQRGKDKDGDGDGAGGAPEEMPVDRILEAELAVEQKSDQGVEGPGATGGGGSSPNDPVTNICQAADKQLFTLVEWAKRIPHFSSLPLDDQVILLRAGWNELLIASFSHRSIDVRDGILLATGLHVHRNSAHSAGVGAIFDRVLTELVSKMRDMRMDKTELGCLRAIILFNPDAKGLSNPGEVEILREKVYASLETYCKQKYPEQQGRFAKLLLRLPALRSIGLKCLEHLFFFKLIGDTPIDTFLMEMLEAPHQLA
Text: Briefly, the co-transfection assay involves the introduction of two plasmids by transient transfection into a retinoid receptor-negative mammalian cell background. The first plasmid contains a retinoid receptor cDNA and directs constitutive expression of the encoded receptor. The second plasmid contains a cDNA that encodes for a readily quantifiable protein, e.g., firefly luciferase or chloramphenicol acetyl transferase (CAT), under control of a promoter containing a retinoid acid response element, which confers retinoid dependence on the transcription of the reporter. […] This assay can be used to accurately measure efficacy and potency of retinoic acid and synthetic retinoids as ligands that interact with the individual retinoid receptor subtypes.

[1] = tested on: tamoxifen-resistant primary tumors; test: Example 1: tumor response of tamoxifen-resistant NMU-induced mammary tumors; format: in vivo, Sprague-Dawley rats; conditions: additional six weeks; for combined response of partial or complete regression / incidence of progressive disease / complete regression of tumors: LGD1069 100 mg/kg orally daily added to tamoxifen 800 μg/kg sc daily, versus tamoxifen alone; for complete regression of tumors: p<0.05
Experimental: (§1) Mammary tumorigenesis was induced by administration of 50 mg/kg of N-nitroso-N-methylurea (NMU) (Sigma, St. Louis, Mo.) to 50 day old virgin female Sprague-Dawley rats (Harlan-SD, Indianapolis, Ind.). […] Fresh solutions of NMU were injected within 30 minutes of preparation. The animals were injected in the tail vein with 5 mg NMU/100 g body weight. Rats were housed in a USDA registered facility in accordance with NIH guidelines for the care and use of laboratory animals. […] Beginning five weeks after tumor induction, animals were examined for tumors twice a week. Tumors were measured with electronic calipers (Mitushoyo, Japan) and cross sectional areas were determined by multiplying the longest length of the tumor by the greatest perpendicular width of the tumor.

[2] = tested on: established mammary tumors; test: Example 3: established NMU-induced mammary tumors, six weeks of treatment; format: in vivo, Sprague-Dawley rats; conditions: for tumors completely regressed / tumors continued to progress / tumors partially regressed: LGD1069 100 mg/kg or tamoxifen 800 μg/kg
Experimental: Mammary tumorigenesis was induced by administration of 50 mg/kg of N-nitroso-N-methylurea (NMU) (Sigma, St. Louis, Mo.) to 50 day old virgin female Sprague-Dawley rats (Harlan-SD, Indianapolis, Ind.). NMU was formulated as an aqueous solution of 10 mg/ml by wetting NMU powder with 3% acetic acid and dissolving it in sterile saline. Fresh solutions of NMU were injected within 30 minutes of preparation. The animals were injected in the tail vein with 5 mg NMU/100 g body weight. Rats were housed in a USDA registered facility in accordance with NIH guidelines for the care and use of laboratory animals. […] Beginning five weeks after tumor induction, animals were examined for tumors twice a week. Tumors were measured with electronic calipers (Mitushoyo, Japan) and cross sectional areas were determined by multiplying the longest length of the tumor by the greatest perpendicular width of the tumor.

primary mammary tumors = test: Example 4: NMU-induced mammary tumors, submaximally efficacious doses alone and coadministered; format: in vivo, Sprague-Dawley rats; conditions: for primary mammary tumors regressed: single agent at submaximally efficacious dose: LGD1069 10 mg/kg, tamoxifen 150 mg/kg
Experimental: as §1

[3] = tested on: mammary carcinoma development; conditions: NMU-treated rat, compared with tamoxifen; cited from earlier work
[4] = tested on: tumors that grew in the presence of the low-dose tamoxifen; test: Example 2: NMU-induced tumors that grew in the presence of low-dose tamoxifen; conditions: LGD1069 100 mg/kg PO added to low-dose tamoxifen therapy, compared to treatment with tamoxifen (800 μg/kg SC)
[5] = tested on: estrogen receptor positive breast cancers; conditions: patients, tamoxifen treatment; cited from earlier work

In the case of `Cc1cc2c(cc1/C(=N/O)c1ccc(C(=O)O)cc1)C(C)(C)CCC2(C)C` [LDG100324], the Efficacy (RXRβ) is reported as 51% and the EC50 (RXRβ; read-out: Potency) is reported as 8 nM.

With `C=C(c1ccc(C(=O)O)cc1)c1cc2c(cc1C)C(C)(C)CCC2(C)C` [LGD1069] the “combined response of partial or complete regression” value [1] was “more than 90%”, the “incidence of progressive disease” value [1] was 3% and the “complete regression of tumors” value [1] was 56%. The “incidence of stable disease” value ([1]; LGD1069 100 mg/kg orally daily added to tamoxifen, compared with tamoxifen alone) was “reduced the incidence”, the “antitumor efficacy on established mammary tumors” value ([2]; LGD1069 100 mg/kg daily for six weeks, compared with tamoxifen 800 μg/kg) was “greater efficacy than treatment with tamoxifen” and the tumors completely regressed ([2]; daily for six weeks) was 72.2%. The “tumors continued to progress” value ([2]; daily for six weeks) was 11.1%, the tumors partially regressed ([2]; daily for six weeks) was 16.7% and the tumors completely regressing (primary mammary tumors; LGD1069 10 mg/kg coadministered with tamoxifen 150 mg/kg) was 26.3%. The “primary mammary tumors regressed” value (primary mammary tumors) was 10.5%, the “inhibiting mammary carcinoma development (chemopreventive)” value [3] was “as effective as the anti-estrogen tamoxifen” and the “amount of progressive disease” value [4] was “significantly reduced the amount of progressive disease”.

In the case of `CC/C(=C(\c1ccccc1)c1ccc(OCCN(C)C)cc1)c1ccccc1` [tamoxifen, reference compound], the “combined response of partial or complete regression” value [1] is reported as 44%, the “incidence of progressive disease” value [1] is reported as 44% and the “complete regression of tumors” value [1] is reported as 16.7%. The tumors completely regressed ([2]; daily for six weeks) was 33.3%, the “tumors continued to progress” value ([2]; daily for six weeks) was 28.6% and the tumors partially regressed ([2]; daily for six weeks) was 33.3%. For the same molecule, the tumors remained static ([2]; daily for six weeks, tamoxifen 800 μg/kg) was 4.8%, the “primary mammary tumors regressed” value (primary mammary tumors) was 5.6% and the “estrogen receptor positive breast cancers that respond to treatment” value [5] was “approximately 66%”.

For `CC1=C(/C=C/C(C)=C\C=C\C(C)=C\C(=O)O)C(C)(C)CCC1` [9-cis-retinoic acid, reference compound], the Efficacy (RXRβ; RXRβ, co-transfection assay) was 140%.
